In article PMC8911181, “A Novel CDK4/6 and PARP Dual Inhibitor ZC-22 Effectively Suppresses Tumor Growth and Improves the Response to Cisplatin Treatment in Breast and Ovarian Cancer” (International Journal of Molecular Sciences, 2022):

Tests used:
[1] = system: CDK4/6-mediated phosphorylation of Rb; test: Western blot of p-Rb/Rb; format: cell-based, human; conditions: MDA-MB-231 (2 μM) and OVCAR5 (0.5 μM) cells, 24 h
Method: Cells were washed with PBS, collected with scraper, and then lysed in RIPA buffer containing 1× protease and phosphatase inhibitors for 30 min on ice. The supernatants were collected by centrifugation at full speed for 10 min at 4 °C and subjected to SDS-PAGE followed by immunoblotting as described before. Signals were detected using enhanced chemiluminescence (Millipore, Burlington, MA, USA) and captured by the G: BOX Chemi XRQ gel doc System (Syngene, Cambridge, UK).
(§1) Figure 3 ZC-22 inhibits CDK4/6 and PARP to induce cell-cycle arrest, DNA damage, and apoptosis in breast and ovarian cancer cells. (A,B) MDA-MB-231 cells were treated with 2 μM LY2835219 (LY-2) or ZC-22. […] The levels of CDK4/6 and p-Rb/Rb were determined by Western blot (A). Cell-cycle distribution was analyzed by flow cytometry (B). […] (D,E) Representative pictures (left) and quantification of percentage (right) of γH2A.X-positive cells in MDA-MB-231 cells treated with 2 μM OLA or ZC-22 for 24 h (D), or OVCAR5 cells treated with 0.5 μM OLA or ZC-22 for 24 h (E). Values are means ± SD, n = 3. * p < 0.05, ** p < 0.01, and *** p < 0.001 for comparisons with the DMSO-treated group. p value was calculated using an unpaired t-test. […] Values are means ± SD, n = 3. * p < 0.05, ** p < 0.01, and *** p < 0.001 vs. the DMSO-treated group. p value was calculated using an unpaired t-test. […]

γH2A.X = test: Immunofluorescence staining of γH2A.X foci; format: cell-based, human; conditions: MDA-MB-231 (2 μM) and OVCAR5 (0.5 μM) cells; 24 h
Method: Immunofluorescence-staining of γH2A.X was performed as described before. Briefly, cells were seeded on cover glasses in 24-well plates, cultured for 24–48 h, and then treated with cisplatin alone or together with Olaparib or ZC-22 for 24 h. After washing with PBS, cells were fixed by 4% PFA, permeated with 0.5% Triton-X100 in PBS, washed thrice with 0.1% PBS-Tween (PBST), blocked with 3% BSA in PBST, and then incubated with anti-γH2A.X antibody overnight at 4 °C. […] At least 150 cells in three fields were counted for each repeat.
as §1, with “cells.” for “cells. (A,B) MDA-MB-231 cells were treated with 2 μM LY2835219 (LY-2) or ZC-22.”

| SMILES | inhibitory activity on CDK4/6-mediated phosphorylation of Rb [1] | formation of γH2A.X foci (γH2A.X) |
| --- | --- | --- |
| CCN1CCN(Cc2ccc(Nc3ncc(F)c(-c4cc(F)c5nc(C)n(C(C)C)c5c4)n3)nc2)CC1 [LY2835219, Abemaciclib, reference compound] | equal inhibitory activity |  |
| Cc1nc2c(F)cc(-c3nc(Nc4ccc(N5CCN(C(=O)c6cc(Cc7n[nH]c(=O)c8ccccc78)ccc6F)CC5)cn4)ncc3F)cc2n1C(C)C [ZC-22, 4-(4-fluoro-3-(4-(6-((5-fluoro-4-(4-fluoro-1-isopropyl-2-methyl-1H-benzo[d]imidazole-6-yl)pyrimidin-2-yl)amino)pyridin-3-yl)piperazine-1-carbonyl)benzyl)phthalazin-1(2H)-one] | equal inhibitory activity | notably induced formation of γH2A.X foci |
